What all share (format): cell-based, human
Assay [1] concerns senescent foreskin cells. In words: survival of senescent foreskin cells treated with medium supernatant (secreted fluid) of compound-killed cells (Example 13, Tables 68, 69). Particulars: culture medium supernatant from dying senescent cells treated with compound at 30 μM, 90 μM or 270 μM; senescent foreskin cells.
Assay [2] relates to foreskin cells in which senescence was induced by doxorubicin. The assay is described as follows: CellTiter-Glo cell viability of doxorubicin-induced senescent foreskin cells (Examples 1-2, 10, 11, 13; Tables 4, 63, 65). Particulars: doxorubicin-induced senescent foreskin cells, CellTiter-Glo, 0 μM = 100. In general terms: ATP-based viability assays read luminescence as a measure of living cells.

Assay [3] relates to HMGN1. The assay is described as follows: HMGN1 ELISA in culture medium of foreskin cells (Examples 10, 11; Tables 62, 63, 64). Particulars: doxorubicin-treated foreskin cells, DMSO = 100. In general terms: ELISA stands for enzyme-linked immunosorbent assay.
The test system of assay [4] is HMGN1. In words: HMGN1 ELISA in culture medium of A549 cancer cells (Example 12, Table 66). Particulars: doxorubicin-induced senescent A549 cells, ELISA, DMSO = 100.
Assay [5] has as its system A549. The assay is described as follows: CellTiter-Glo cell viability of senescent A549 cancer cells (Example 12, Table 67). To be noted: doxorubicin-induced senescent A549 cancer cells, CellTiter-Glo.

The source of these data is patent publication US20250108036A1, “COMPOSITIONS FOR REMOVING SENESCENT CELLS AND USES THEREOF” (LIFECEUTIX CO., LTD., priority 2021, published 2025).

As for `Cc1nnc(NC(=O)c2nc(S(=O)(=O)Cc3ccc(F)cc3)ncc2Cl)s1` [LX-916], in assay [1], the Survival came out at 48.7. The “Survival (%)” value was 103.5% in assay [2] (1.1 μM test compound); 54.5% in assay [2] (10 μM test compound); 3.5% in assay [2] (30 μM test compound); 94.2% in assay [2] ([…] test compound); 103.9% in assay [5] (1.1 μM test compound); 71.7% in assay [5] (10 μM test compound). In addition, the “Survival (%)” value in assay [5] (30 μM test compound) was 24.4%; in assay [5] (90 μM test compound) it was 1.7%. The molecule further came in with an HMGN1 in assay [3] (30 μM test compound) of 317. In addition, the “HMGN1 (amount of HMGN1 secreted in the cell culture)” value in assay [4] (test compound 90 μM) amounted to 198.

As for `CCOC(=O)[C@@H](N)CCC(=O)N[C@@H](CSCc1ccccc1)C(=O)N[C@@H](C(=O)OCC)c1ccccc1` [LX-2602, Ezatiostat, reference compound], the Survival in assay [1] came to 69.5. In addition, the “Survival (%)” value is recorded as 97.3% in assay [2] (1.1 μM test compound); 76.9% in assay [2] (10 μM test compound); 47.6% in assay [2] (30 μM test compound); 92.5% in assay [2] ([…] test compound); 102.7% in assay [5] (1.1 μM test compound); 96% in assay [5] (10 μM test compound). For the same molecule, the “Survival (%)” value in assay [5] (30 μM test compound) stood at 32.5%. In assay [3] (30 μM test compound), this molecule came in with an HMGN1 of 208. Further, the “HMGN1 (amount of HMGN1 secreted in the cell culture)” value in assay [4] (test compound 30 μM) is 283.

Regarding `CS(=O)(=O)c1ncc(Cl)c(C(=O)O)n1` [LX-917], the Survival in assay [1] was found to be 42.5. The “Survival (%)” value in assay [2] (1.1 μM test compound) came to 101.8%; in assay [2] (10 μM test compound), 45.8%; in assay [2] (30 μM test compound), 4.7%; in assay [2] ([…] test compound) it was 93.2%; in assay [5] (1.1 μM test compound) it was 101.5%; in assay [5] (10 μM test compound) it was 65.7%. The “Survival (%)” value in assay [5] (30 μM test compound) is listed as 17.1%; in assay [5] (90 μM test compound), 3.5%. For the same molecule, the HMGN1 in assay [3] (30 μM test compound) is reported as 269. Besides, the “HMGN1 (amount of HMGN1 secreted in the cell culture)” value in assay [4] (test compound 90 μM) turned out to be 223.

In the case of `C[C@@H]1C(=O)C(C#N)=C[C@]2(c3ccccc3)c3c(c(-c4cncnc4)nn3C)CC[C@@H]12` [LX-2408], in assay [1], the Survival stood at 55.2. Besides, the “Survival (%)” value in assay [2] (1.1 μM test compound) is 85.9%; in assay [2] ([…] test compound) it was 37.5%; in assay [5] (1.1 μM test compound) it was 96.5%; in assay [5] (10 μM test compound), 15.9%. This molecule yielded an HMGN1 in assay [3] (30 μM test compound) of 297. For the same molecule, in assay [4] (test compound 30 μM), the “HMGN1 (amount of HMGN1 secreted in the cell culture)” value worked out at 329.

`O=C(O)CC([S-])C(=O)O.[Au+]` (centres unmarked) [LX-202, Aurothiomalate, reference compound]: the Survival in assay [1] turned out to be 45.7. Besides, the “Survival (%)” value in assay [2] (1.1 μM test compound) came out at 97.4%; in assay [2] ([…] test compound) it was 7.6%; in assay [5] (1.1 μM test compound) it was 96.7%; in assay [5] (10 μM test compound), 37.3%. Besides, the HMGN1 in assay [3] (30 μM test compound) turned out to be 287. Also, the “HMGN1 (amount of HMGN1 secreted in the cell culture)” value in assay [4] (test compound 30 μM) was 327.

Take `CC1=C(C)C(=O)C(CCCCCCCCCC[P+](c2ccccc2)(c2ccccc2)c2ccccc2)=CC1=O.[Br-]` [LX-1205]: the Survival in assay [1] stood at 53.4. For the same molecule, the “Survival (%)” value turned out to be 0.1% in assay [2] (1.1 μM test compound) and 34.2% in assay [5] (1.1 μM test compound). In assay [3] (30 μM test compound), the HMGN1 is on record as 279. In addition, the “HMGN1 (amount of HMGN1 secreted in the cell culture)” value in assay [4] (test compound 30 μM) came to 279.

As to `C[Se](=O)O` [LX-3105, Methylseleninic acid], the Survival in assay [1] stood at 69.1. For the same molecule, the “Survival (%)” value in assay [2] (1.1 μM test compound) worked out at 82.1%; in assay [2] (10 μM test compound), 41.1%; in assay [2] (30 μM test compound), 37.7%; in assay [2] (90 μM test compound), 4.1%; in assay [2] ([…] test compound) it was 59.5%; in assay [5] (1.1 μM test compound) it was 84%. In addition, the “Survival (%)” value in assay [5] (10 μM test compound) was 69.9%; in assay [5] (30 μM test compound), 59.3%; in assay [5] (90 μM test compound), 39.6%. In assay [3] (30 μM test compound), this molecule displayed an HMGN1 of 195. Moreover, in assay [4] (test compound 90 μM), the “HMGN1 (amount of HMGN1 secreted in the cell culture)” value is listed as 202.

On to `C[N+](C)(C)CCO.C[N+](C)(C)CCO.[SH-].[SH-].[S]=[Mo]=[S]` [LX-2601], for which the Survival in assay [1] is recorded as 67.3. Besides, the “Survival (%)” value amounted to 95.2% in assay [2] (1.1 μM test compound); 58.6% in assay [2] (10 μM test compound); 21.8% in assay [2] (30 μM test compound); 81.8% in assay [2] ([…] test compound); 98.6% in assay [5] (1.1 μM test compound); 59.7% in assay [5] (10 μM test compound). Moreover, in assay [5] (30 μM test compound), the “Survival (%)” value turned out to be 50.7%. In addition, the HMGN1 in assay [3] (30 μM test compound) was 263. The “HMGN1 (amount of HMGN1 secreted in the cell culture)” value in assay [4] (test compound 30 μM) is 193.

On to `CC(N)(Cc1ccc(O)cc1)C(=O)O` (racemic) [LX-3206, Racemetyrosine, reference compound], for which the Survival in assay [1] is recorded as 51.9. Moreover, the “Survival (%)” value came out at 95.8% in assay [2] (1.1 μM test compound); 64.7% in assay [2] (10 μM test compound); 21.3% in assay [2] (30 μM test compound); 96% in assay [2] ([…] test compound); 92.6% in assay [5] (1.1 μM test compound); 51.9% in assay [5] (10 μM test compound). In addition, the “Survival (%)” value in assay [5] (30 μM test compound) is on record as 5.7%. This molecule also came in with an HMGN1 in assay [3] (30 μM test compound) of 222. Moreover, in assay [4] (test compound 30 μM), the “HMGN1 (amount of HMGN1 secreted in the cell culture)” value worked out at 215.

Turning to `O=C(NCCCCCCCCCC[P+](c1ccccc1)(c1ccccc1)c1ccccc1)c1nn(Cc2ccc(Cl)cc2Cl)c2ccccc12.[Br-]` [LX-1207], in assay [1], the Survival was determined as 62.7. In addition, the “Survival (%)” value in assay [2] (1.1 μM test compound) worked out at 36.8%; in assay [2] ([…] test compound) it was 10%; in assay [5] (1.1 μM test compound) it was 59.8%. The molecule further came in with an HMGN1 in assay [3] (30 μM test compound) of 285. For the same molecule, the “HMGN1 (amount of HMGN1 secreted in the cell culture)” value in assay [4] (test compound 30 μM) was found to be 318.

Consider “[3,4,5-triacetyloxy-6-[4-[2-[(dimethylamino)methyl]prop-2-enoyl]phenoxy]oxan-2-yl]methyl acetate [LX-918]”, for which the Survival in assay [1] is recorded as 63.8. The “Survival (%)” value in assay [2] (1.1 μM test compound) stood at 98.9%; in assay [2] (10 μM test compound) it was 94.5%; in assay [2] (30 μM test compound), 32.7%; in assay [2] ([…] test compound) it was 95.4%; in assay [5] (1.1 μM test compound), 103.8%; in assay [5] (10 μM test compound), 86.7%. The entries for the “Survival (%)” value in assay [5] (30 μM test compound) and in assay [5] (90 μM test compound) were 82.9% and 31.8%, respectively. For the same molecule, the HMGN1 in assay [3] (30 μM test compound) was 247. In assay [4] (test compound 90 μM), the “HMGN1 (amount of HMGN1 secreted in the cell culture)” value is reported as 200.

As to “LX-3401: Interferon gamma, CAS 98059-61-1 (IFNy-1b), 82115-62-6”, the Survival in assay [1] is 66.8. The “Survival (%)” value in assay [2] (1.1 μM test compound) came out at 101.8%; in assay [2] (10 μM test compound), 75.8%; in assay [2] (30 μM test compound), 35.4%; in assay [2] ([…] test compound), 98.1%; in assay [5] (1.1 μM test compound), 110.8%; in assay [5] (10 μM test compound), 58.3%. For the same molecule, in assay [5] (30 μM test compound), the “Survival (%)” value came to 5.8%. The same molecule gave an HMGN1 in assay [3] (20 ng/ml test compound) of 198. In assay [4] (test compound 20 ng/ml), the “HMGN1 (amount of HMGN1 secreted in the cell culture)” value turned out to be 284.

For the molecule `Cc1nc(-c2nc(-c3ccc(OC(F)(F)F)cc3)no2)nn1Cc1cccc(N2CCC(S(C)(=O)=O)CC2)c1` [LX-3200], in assay [1], the Survival is recorded as 54.9. Besides, the “Survival (%)” value in assay [2] (1.1 μM test compound) is 92.2%; in assay [2] (10 μM test compound), 14.3%; in assay [2] ([…] test compound) it was 78.6%; in assay [5] (1.1 μM test compound) it was 94.9%; in assay [5] (10 μM test compound), 61.6%; in assay [5] (30 μM test compound) it was 1.6%. Also, the HMGN1 in assay [3] (30 μM test compound) was determined as 234. In addition, the “HMGN1 (amount of HMGN1 secreted in the cell culture)” value in assay [4] (test compound 30 μM) came to 305.

B1: LX-3103: CAS 9015-68-3 (protein, UniProt P00805 23-348, looked up)
L-asparaginase 2: LPNITILATGGTIAGGGDSATKSNYTVGKVGVENLVNAVPQLKDIANVKGEQVVNIGSQDMNDNVWLTLAKKINTDCDKTDGFVITHGTDTMEETAYFLDLTVKCDKPVVMVGAMRPSTSMSADGPFNLYNAVVTAADKASANRGVLVVMNDTVLDGRDVTKTNTTDVATFKSVNYGPLGYIHNGKIDYQRTPARKHTSDTPFDVSKLNELPKVGIVYNYANASDLPAKALVDAGYDGIVSAGVGNGNLYKSVFDTLATAAKTGTAVVRSSRVPTGATTQDAEVDDAKYGFVASGTLNPQKARVLLQLALTQTKDPQQIQQIFNQY
B1: the Survival in assay [1] was 64.3. Also, the “Survival (%)” value in assay [2] (1.1 μM test compound) is recorded as 84.4%; in assay [2] (10 μM test compound), 48.5%; in assay [2] (30 μM test compound), 25%; in assay [2] ([…] test compound), 71.2%; in assay [5] (1.1 μM test compound), 68.7%; in assay [5] (10 μM test compound), 21.1%. Moreover, the HMGN1 in assay [3] (30 μM test compound) was 243. In addition, the “HMGN1 (amount of HMGN1 secreted in the cell culture)” value in assay [4] (test compound 30 μM) was found to be 254.
